According to US9968619B2, “Method of treating triple-negative breast cancer using thienotriazolodiazepine compounds” (ONCOETHIX GMBH, priority 2014, dated 2018):
“Also recorded” adds a separate entry of the source.

Key:
Oral exposure in the rat = assay type: in vivo, Sprague Dawley rats; conditions: 1 mg/kg intravenous
Experimental: The oral bioavailability of three formulations of solid dispersions of compound (1-1) was determined in rats. The three dispersions chosen were the 25% dispersion of compound (1-1) in PVP, the 25% dispersion of compound (1-1) in HPMCAS-MG, and the 50% dispersion of compound (1-1) in HPMCAS-MG. The animals used in the study were Specific Pathogen Free (SPF) Hsd: Sprague Dawley rats obtained from the Central Animal Laboratory at the University of Turku, Finland. The rats were originally purchased from Harlan, The Netherlands. The rats were female and were ten weeks of age, and 12 rats were used in the study. […]
The oral dosing solutions containing the 25% dispersion of compound (1-1) in PVP, the 25% dispersion of compound (1-1) in HPMCAS-MG, and the 50% dispersion of compound (1-1) in HPMCAS-MG were prepared by adding a pre-calculated amount of sterile water for injection to containers holding the dispersion using appropriate quantities to obtain a concentration of 0.75 mg/mL of compound (1-1). […]
Pharmacokinetic parameters were calculated with the Phoenix WinNonlin software package (version 6.2.1, Pharsight Corp., CA, USA) with standard noncompartmental methods. The elimination phase half-life (t1/2) was calculated by least-squares regression analysis of the terminal linear part of the log concentration-time curve. […]

HCC1937 [1] = assay: Cell cycle after drug washout, HCC1937; assay type: cell-based, human; conditions: 650 nM for 72 h, then 48 h of drug washout
Experimental: Cells were staining with propidium iodide then analyzed using a FACScan flow cytometer. […] After 72 h of treatment, control and treated cells were washed with PBS and re-incubated with compound (1-1) free medium (drug washout). As show in FIG. 14A-14C, significant differences in the percentage of compound (1-1)-treated cells in the G1, S and G2/M phases with respect to untreated controls were determined by a one-way ANOVA test (p<0.001) followed by an SNK a posteriori test. After washout, significant differences in the percentage of cells in a given cell cycle phase between control and pre-treated cells were determined with the Student t-test for independent samples with equal or different variance, as appropriate. * , × and # means significant difference between treated cells respect and controls in G1 phase (*p<0.05, **p<0.01), G2/M phase (×p<0.05, ××p<0.01) and S phase p<0.05, ## p<0.01), respectively. Each bar and vertical line represents the mean±SEM, respectively (n≥3).

MDA-MB-231 = assay: Cell counting proliferation, MDA-MB-231; assay type: cell-based; conditions: Homo sapiens
MDA-MB-468 = assay: Western blotting and RT-PCR expression, MDA-MB-468; assay type: cell-based, human; conditions: 24, 48 and 72 h
Source text: (§1) Logarithmic transformation of the variable was applied before the ANOVA test if required. As shown in FIG. 16A-C, Western blots are representative of three independent experiments where each bar and vertical line represents the mean±SEM, respectively (n=3). As shown in FIG. 15D-15G, C-MYC protein and mRNA levels were unchanged by Compound (1-1) treatment in all the three cell lines.
(§2) CDKN1A (p21) mRNA levels were increased in all three cell models (p<0.001). […] Significant differences in the mRNA levels were determined by one-way ANOVA test (p<0.01) followed by SNK a posteriori test (*p<0.05, **p<0.01, […]). Logarithmic transformation of the variable was applied before the ANOVA test if required. Each bar and vertical line represents the mean±SEM, respectively (n=3). Western blots are representative of 3 independent experiments.

HCC1937 [2] = assay: Western blotting and RT-PCR expression, HCC1937; assay type: cell-based, human; conditions: 650 nM; 24, 48 and 72 h
Source text: as §1, §2

[3] = MDA-MB-231, 48 h, 48 h exposure, hypoxia (0.1% O2)
[4] = MDA-MB-231, 48 h, 48 h exposure, normoxia
[5] = MDA-MB-231, 72 h, 72 h exposure, hypoxia (0.1% O2)
[6] = MDA-MB-231, 72 h, 72 h exposure, normoxia
[7] = 650 nM, listed as compound (1-1), dihydrate

Cc1sc2c(c1C)C(c1ccc(Cl)cc1)=N[C@@H](CC(=O)Nc1ccc(O)cc1)c1nnc(C)n1-2 [Compound (1-1), 2-[(6S)-4-(4-chlorophenyl)-2,3,9-trimethyl-6H-thienol[3,2-f]-[1,2,4]triazolo[4,3-a][1,4]diazepin-6-yl]-N-(4-hydroxyphenyl)acetamide dihydrate]
CI/F (Oral exposure in the rat): 13.4 mL/min/kg | cell cycle pattern after drug washout (HCC1937 [1]): recovered the control cell cycle pattern | Emax (MDA-MB-231; [3]): 67% | GI50 (MDA-MB-231; [3]): 144 nM | Emax (MDA-MB-231; [4]): 71% | GI50 (MDA-MB-231; [4]): 92.2 nM | Emax (MDA-MB-231; [5]): 82% | GI50 (MDA-MB-231; [5]): 49.1 nM | Emax (MDA-MB-231; [6]): 89% | GI50 (MDA-MB-231; [6]): 55.9 nM | BRD2 levels (MDA-MB-468; 650 nM): increased | mRNA levels of BRD3 (MDA-MB-468; 650 nM): reduced | mRNA levels of BRD4 (MDA-MB-468; 650 nM): downregulated | c-Myc expression (mRNA and protein) (MDA-MB-468; 650 nM, dihydrate): down-regulated | c-Myc expression (mRNA and protein) (MDA-MB-468; [7]): downregulated; also recorded: downregulation | mRNA levels of n-Myc (MDA-MB-468; [7]): downregulated; also recorded: downregulation | expression levels of c-MYC and n-MYC (MDA-MB-468; RT-PCR, 500 nM): marked (p<0.05) reduction | mRNA levels of BRD3 (HCC1937 [2]): reduced
